Measurements: patent US9884126B2, “Anti-wall teichoic antibodies and conjugates” (priority 2013, dated 2018)
Values after ≈ are worked out from the molar mass of the structure shown.

Key:
[1] = test system: MRSA (NRS384 strain of USA300); assay: MIC determination for extracellular bacteria; type: cell-based; conditions: Staphylococcus aureus, read-out: Extracellular MRSA MIC
Description: Dilutions of the antibiotic were made in quadruplicate in 96 well culture dishes. MRSA (NRS384 strain of USA300) was taken from an exponentially growing culture and diluted to 1×10^4 CFU/mL. Bacteria was cultured in the presence of antibiotic for 18-24 hours with shaking at 37° C. and bacterial growth was determined by reading the Optical Density (OD) at […]. The MIC was determined to be the dose of antibiotic that inhibited bacterial growth by >90%.

[2] = test system: MRSA (NRS384 strain of USA300); assay: MIC determination / killing of intracellular bacteria in mouse peritoneal macrophages; type: cell-based, Staphylococcus aureus
MRSA (USA300) = assay: Intravenous infection model in CB17.SCID mice reconstituted with human IgG (SCID:huIgG); type: in vivo
Description: To confirm that the AAC would be effective in the presence of competing human antibodies in vivo, the in vivo infection model was modified to generate mice that express normal levels of human IgG in the serum. […] Four days after infection the bacterial load in the kidneys (FIG. 10C) was assessed.
CB17.SCID mice were reconstituted with human IgG using a dosing regimen optimized to yield constant levels of at least 10 mg/mL of human IgG in serum.
Efficacy of the AAC was compared with that of treatment with vancomycin, the current standard of care treatment for MRSA infections. […]
CB17.SCID mice were reconstituted with human IgG using a dosing regimen optimized to yield constant levels of at least 10 mg/mL of human IgG in serum and infected with 2×10^7 CFU of USA300 by intravenous injection. […] The mice were sacrificed on day 4 post infection, and the total number of surviving bacteria in kidneys (2 kidneys pooled, FIG. 21) and heart (FIG. 22) was determined by plating.
7 week old female mice were used for all in vivo experiments and infections were carried out by intravenous injection into the tail vein. […] The total number of bacteria recovered per mouse (2 kidneys) was determined by plating serial dilutions of the tissue homogenate in PBS 0.05% Tween on Tryptic Soy Agar with 5% defibrinated sheep blood.

USA300 = assay: Intravenous infection model, pre-treatment in Balb/c mice; type: in vivo; conditions: antibodies 50 mg/Kg IV 30 minutes prior to infection; vancomycin 110 mg/Kg twice daily; day 4
Description: Balb/c mice were given a single dose of vehicle control (PBS) or 50 mg/Kg of antibodies by intravenous injection 30 minutes prior to infection with 2×10^7 CFU of USA300. […] Control mice were given twice daily treatments with 110 mg/Kg of vancomycin by intraperitoneal injection (Vanco). All mice were sacrificed on day 4 post-infection, and the total number of surviving bacteria in kidneys (2 kidneys pooled) was determined by plating.
7 week old female mice were used for all in vivo experiments and infections were carried out by intravenous injection into the tail vein. A/J mice (Jackson Lab) were infected with a dose of 2×10^6 CFU. Balb/c mice (Charles River Laboratories, Hollister, Calif.) were infected with a dose of 2×10^7 CFU. For studies examining the role of competing human IgG (SCID IVIG model), CB17.SCID mice (Charles River Laboratories, Hollister, Calif.) were reconstituted with GammaGard S/D IGIV Immune Globulin (ASD Healthcare, Brooks KY) using a dosing regimen optimized to achieve constant serum levels of >10 mg/mL of human IgG. […] The total number of bacteria recovered per mouse (2 kidneys) was determined by plating serial dilutions of the tissue homogenate in PBS 0.05% Tween on Tryptic Soy Agar with 5% defibrinated sheep blood.

MRSA [3] = assay: Transfer of infection from peritoneal cells to MG63 osteoblasts in the presence of vancomycin; type: cell-based, Staphylococcus aureus; conditions: 5 μg/mL of vancomycin
Description: 6-8 week old female A/J mice (JAX™ Mice, Jackson Laboratories) were infected with 1×10^8 CFU of the NRS384 strain of USA300 by peritoneal injection. The peritoneal wash was harvested 1 day post infection, and the infected peritoneal cells were treated with 50 μg/mL of lysostaphin diluted in Hepes Buffer supplemented with 0.1% BSA (HB buffer) for 30 minutes at 37° C. Peritoneal cells were then washed 2× in ice cold HB buffer. The peritoneal cells were diluted to 1×10^6 cells/mL in RPMI 1640 tissue culture media supplemented with 10 mM Hepes and 10% Fetal Calf Serum, and 5 μg/mL vancomycin. Free MRSA from the primary infection was stored overnight at 4° C. in Phosphate Buffered Saline Solution as a control for extracellular bacteria that were not subject to neutrophil killing.
MG63 osteoblast cell line was obtained from ATCC (CRL-1427) and maintained in RPMI 1640 tissue culture media supplemented with 10 mM Hepes and 10% Fetal Calf Serum (RPMI-10). […] The actual titer for all infections was determined by plating serial dilutions of the bacteria on Tryptic Soy Agar with 5% defibrinated sheep blood.
To generate a pool of intracellular S. aureus, A/J mice were infected with MRSA and infected peritoneal cells were taken 1 day post infection. […] The total number of surviving intracellular bacteria in each well was determined by plating cell lysates on agar plates. […]

MRSA [4] = conditions: TSB; vancomycin 2 and 20 μg/mL, rifampin 0.02 and 0.2 μg/mL

For `CN[C@H](CC(C)C)C(=O)N[C@H]1C(=O)N[C@@H](CC(N)=O)C(=O)N[C@H]2C(=O)N[C@H]3C(=O)N[C@H](C(=O)N[C@H](C(=O)O)c4cc(O)cc(O)c4-c4cc3ccc4O)[C@H](O)c3ccc(c(Cl)c3)Oc3cc2cc(c3O[C@@H]2O[C@H](CO)[C@@H](O)[C@H](O)[C@H]2O[C@H]2C[C@](C)(N)[C@H](O)[C@H](C)O2)Oc2ccc(cc2Cl)[C@H]1O` [Vancomycin], the MIC [1] was 1 µg/mL (≈ 0.69 µM), the MIC ([2]; Staphylococcus aureus, 24 h, MRSA inside mouse peritoneal macrophages, […]) was greater than 100 µg/mL and the “killing of intracellular MRSA sequestered inside macrophages” value ([2]; doses including clinically achieveable serum levels) was “failed to kill”. For the same compound, the “efficacy in SCID:huIgG mice (kidney bacteria day 4)” value (MRSA (USA300); AAC single dose 50 mg/Kg day 1, vancomycin 100 mg/Kg twice daily) was “failed to clear the infection”, the “reduction of bacterial loads” value (MRSA (USA300); twice-daily 100 mg/Kg, initiated more than 1 day post infection) was “about 50 fold” and the “effect of pre-treatment on bacterial loads in kidneys” value (USA300) was “cleared the infection in all of the mice tested”. The “intracellular bacteria recovered from MG63 wells 1 day after infection” value (MRSA [3]; infected with 3×10^4 intracellular bacteria) was 8,750 intracellular bacteria, the “intracellular bacteria recovered from MG63 wells 1 day post infection” value (MRSA [3]; infected with a similar dose of free MRSA) was 375 intracellular bacteria and the “bacteria remaining viable during the first two hours of treatment” value (MRSA [4]) was 90%. For the same compound, the “loss in viable bacteria by 5 hours” value (MRSA [4]) was 100 fold.
